Data from ChEMBL document CHEMBL4359884, “Design, synthesis and biological evaluation of novel pleuromutilin derivatives possessing acetamine phenyl linker” (Eur J Med Chem, 2019).
≈ marks a conversion by molar mass, not a printed value.

Assays:
Format in all cases: functional
Escherichia coli [1] = experiment: Antibacterial activity against Escherichia coli ATCC 25922 assessed as bacterial growth inhibition incubated for 24 hrs by broth dilution method; details: ATCC 25922, 24 h
Escherichia coli [2] = experiment: Antibacterial activity against Escherichia coli 9-1 assessed as bacterial growth inhibition incubated for 24 hrs by broth dilution method; details: 9-1, 24 h
Staphylococcus aureus [3] = experiment: Antibacterial activity against Staphylococcus aureus AD3 assessed as bacterial growth inhibition incubated for 24 hrs by broth dilution method; details: AD3, 24 h
Staphylococcus aureus [4] = experiment: Antibacterial activity against methicillin-resistant Staphylococcus aureus ATCC 43300 assessed as bacterial growth inhibition incubated for 24 hrs by broth dilution method; details: ATCC 43300, 24 h
Staphylococcus aureus [5] = experiment: Antibacterial activity against Staphylococcus aureus ATCC 29213 assessed as bacterial growth inhibition incubated for 24 hrs by broth dilution method; details: ATCC 29213, 24 h
Staphylococcus aureus [6] = experiment: Bactericidal activity against methicillin-resistant Staphylococcus aureus ATCC 43300 assessed as reduction in colony forming unit at 4 times MIC incubated for 3 hrs followed by compound dilution with saline and then incubated for 20 hrs on MH agar plate by time-kill kinetics assay
Staphylococcus aureus [7] = experiment: Antibacterial activity against methicillin-resistant Staphylococcus aureus infected in neutropenic thigh infection ICR/Swiss mouse model assessed reduction in colony forming unit in thigh at 20 mg/kg, iv administered 2 hrs post infection and measured at 24 hrs after drug dosage
Staphylococcus aureus [8] = experiment: Antibacterial against methicillin-resistant Staphylococcus aureus ATCC 43300 assessed as post antibiotic effect time at 2 times MIC incubated for 2 hrs followed by compound washout and then incubated for 20 hrs onto MH agar plate
Staphylococcus aureus [9] = experiment: Bactericidal activity against methicillin-resistant Staphylococcus aureus ATCC 43300 assessed as reduction in colony forming unit at 4 times MIC incubated for 24 hrs followed by compound dilution with saline and then incubated for 20 hrs on MH agar plate by time-kill kinetics assay
Staphylococcus aureus [10] = experiment: Antibacterial against methicillin-resistant Staphylococcus aureus ATCC 43300 assessed as post antibiotic effect time at 2 times MIC incubated for 1 hr followed by compound washout and then incubated for 20 hrs onto MH agar plate
Staphylococcus aureus [11] = experiment: Bactericidal activity against methicillin-resistant Staphylococcus aureus ATCC 43300 assessed as reduction in colony forming unit at 4 times MIC incubated for 3 hrs followed by compound dilution with saline and then incubated for 20 hrs on MH agar plate by time-kill kinetics assay relative to control; parameters: scale not given: the % may be the effect or the level left
Staphylococcus aureus [12] = experiment: Antibacterial activity against methicillin-resistant Staphylococcus aureus infected in systemic infection ICR mouse model assessed as animal survival rate at 30 mg/kg, iv relative to control
Staphylococcus aureus [13] = experiment: Antibacterial against methicillin-resistant Staphylococcus aureus ATCC 43300 assessed as post antibiotic effect time at 4 times MIC incubated for 2 hrs followed by compound washout and then incubated for 20 hrs onto MH agar plate
Staphylococcus aureus [14] = experiment: Antibacterial against methicillin-resistant Staphylococcus aureus ATCC 43300 assessed as post antibiotic effect time at 4 times MIC incubated for 1 hr followed by compound washout and then incubated for 20 hrs onto MH agar plate

Row | SMILES | MIC (Escherichia coli [1]) [µg/mL] | MIC (Escherichia coli [2]) [µg/mL] | MIC (Staphylococcus aureus [3]) [µg/mL] | MIC (Staphylococcus aureus [4]) [µg/mL] | MIC (Staphylococcus aureus [5]) [µg/mL] | Activity (Staphylococcus aureus [6]) [log10CFU/ml] | Activity (Staphylococcus aureus [7]) [log10CFU/ml] | Time (Staphylococcus aureus [8]) [h] | Activity (Staphylococcus aureus [9]) [log10CFU/ml] | Time (Staphylococcus aureus [10]) [h] | Activity (Staphylococcus aureus [11]) [%] | Activity (Staphylococcus aureus [12]) [%] | Time (Staphylococcus aureus [13]) [h] | Time (Staphylococcus aureus [14]) [h]
1 | C=C[C@]1(C)C[C@@H](OC(=O)CSc2ccccc2NC(=O)CN(CC)CC)[C@]2(C)[C@H](C)CC[C@]3(CCC(=O)[C@H]32)[C@@H](C)[C@@H]1O | > 32 | > 32 | 0.125 (≈ 0.209 µM) | 0.125 (≈ 0.209 µM) | 0.125 (≈ 0.209 µM) |  |  |  |  |  |  |  |  | 
2 | C=C[C@]1(C)C[C@@H](OC(=O)CSc2ccccc2NC(=O)CN2CCN(c3cccc(OC)c3)CC2)[C@]2(C)[C@H](C)CC[C@]3(CCC(=O)[C@H]32)[C@@H](C)[C@@H]1O | > 32 | > 32 | 1 (≈ 1.39 µM) | 4 (≈ 5.57 µM) | > 8 |  |  |  |  |  |  |  |  | 
3 | C=C[C@]1(C)C[C@@H](OC(=O)CSc2ccccc2NC(=O)CN2CCN(c3cccc(O)c3)CC2)[C@]2(C)[C@H](C)CC[C@]3(CCC(=O)[C@H]32)[C@@H](C)[C@@H]1O | > 32 | > 32 | 0.25 (≈ 0.355 µM) | 0.125 (≈ 0.178 µM) | 0.25 (≈ 0.355 µM) |  |  |  |  |  |  |  |  | 
4 | C=C[C@]1(C)C[C@@H](OC(=O)CSc2ccccc2NC(=O)CN2CCN(c3ccccc3OC)CC2)[C@]2(C)[C@H](C)CC[C@]3(CCC(=O)[C@H]32)[C@@H](C)[C@@H]1O | > 32 | > 32 | > 8 | > 8 | > 8 |  |  |  |  |  |  |  |  | 
5 | C=C[C@]1(C)C[C@@H](OC(=O)CSc2ccccc2NC(=O)CN2CCN(c3cccc(Cl)c3)CC2)[C@]2(C)[C@H](C)CC[C@]3(CCC(=O)[C@H]32)[C@@H](C)[C@@H]1O | > 32 | > 32 | 2 (≈ 2.77 µM) | 1 (≈ 1.38 µM) | 1 (≈ 1.38 µM) |  |  |  |  |  |  |  |  | 
6 | C=C[C@]1(C)C[C@@H](OC(=O)CSc2ccccc2NC(=O)CN2CCN(c3ccccc3)CC2)[C@]2(C)[C@H](C)CC[C@]3(CCC(=O)[C@H]32)[C@@H](C)[C@@H]1O | > 32 | > 32 | 0.25 (≈ 0.363 µM) | 0.25 (≈ 0.363 µM) | 0.25 (≈ 0.363 µM) |  |  |  |  |  |  |  |  | 
7 | C=C[C@]1(C)C[C@@H](OC(=O)CSc2ccccc2NC(=O)CN2CCN(c3ccccc3[N+](=O)[O-])CC2)[C@]2(C)[C@H](C)CC[C@]3(CCC(=O)[C@H]32)[C@@H](C)[C@@H]1O | > 32 | > 32 | > 8 | 4 (≈ 5.46 µM) | > 8 |  |  |  |  |  |  |  |  | 
8 | C=C[C@]1(C)C[C@@H](OC(=O)CSc2ccccc2NC(=O)CN2CCCC2)[C@]2(C)[C@H](C)CC[C@]3(CCC(=O)[C@H]32)[C@@H](C)[C@@H]1O | > 32 | > 32 | 0.125 (≈ 0.209 µM) | 0.25 (≈ 0.419 µM) | 0.125 (≈ 0.209 µM) |  |  |  |  |  |  |  |  | 
9 | C=C[C@]1(C)C[C@@H](OC(=O)CSc2ccccc2NC(=O)CN2CCC(O)CC2)[C@]2(C)[C@H](C)CC[C@]3(CCC(=O)[C@H]32)[C@@H](C)[C@@H]1O | > 32 | > 32 | 0.25 (≈ 0.399 µM) | 0.125 (≈ 0.199 µM) | 0.125 (≈ 0.199 µM) |  |  |  |  |  |  |  |  | 
10 | C=C[C@]1(C)C[C@@H](OC(=O)CSc2ccccc2NC(=O)CN2CCN(c3ccc(O)cc3)CC2)[C@]2(C)[C@H](C)CC[C@]3(CCC(=O)[C@H]32)[C@@H](C)[C@@H]1O | > 32 | > 32 | 0.5 (≈ 0.71 µM) | 1 (≈ 1.42 µM) | 1 (≈ 1.42 µM) |  |  |  |  |  |  |  |  | 
11 | C=C[C@]1(C)C[C@@H](OC(=O)CSCCN(CC)CC)[C@]2(C)[C@H](C)CC[C@]3(CCC(=O)[C@H]32)[C@@H](C)[C@@H]1O [TIAMULIN] |  |  | 0.5 (≈ 1.01 µM) | 0.5 (≈ 1.01 µM) | 1 (≈ 2.03 µM) | 1.54 | 0.59 | 1.65 | 1.9 | 1.53 | 97 | 20 | 2.04 | 1.9
12 | C=C[C@]1(C)C[C@@H](OC(=O)CSc2ccccc2NC(=O)CN2CCN(c3ccccc3C)CC2)[C@]2(C)[C@H](C)CC[C@]3(CCC(=O)[C@H]32)[C@@H](C)[C@@H]1O | > 32 | > 32 | 2 (≈ 2.85 µM) | 2 (≈ 2.85 µM) | 4 (≈ 5.7 µM) |  |  |  |  |  |  |  |  | 
13 | C=C[C@]1(C)C[C@@H](OC(=O)CSc2ccccc2NC(=O)CN2CCN(c3ccccc3F)CC2)[C@]2(C)[C@H](C)CC[C@]3(CCC(=O)[C@H]32)[C@@H](C)[C@@H]1O | > 32 | > 32 | 1 (≈ 1.42 µM) | 2 (≈ 2.83 µM) | 8 (≈ 11.3 µM) |  |  |  |  |  |  |  |  | 
14 | C=C[C@]1(C)C[C@@H](OC(=O)CSc2ccccc2NC(=O)CN2CCN(c3ccccc3O)CC2)[C@]2(C)[C@H](C)CC[C@]3(CCC(=O)[C@H]32)[C@@H](C)[C@@H]1O | > 32 | > 32 | 0.5 (≈ 0.71 µM) | 1 (≈ 1.42 µM) | 2 (≈ 2.84 µM) |  |  |  |  |  |  |  |  | 
15 | C=C[C@]1(C)C[C@@H](OC(=O)CSc2ccccc2NC(=O)CN2CCN(c3ccc(OC)cc3)CC2)[C@]2(C)[C@H](C)CC[C@]3(CCC(=O)[C@H]32)[C@@H](C)[C@@H]1O | > 32 | > 32 | 0.5 (≈ 0.696 µM) | 2 (≈ 2.79 µM) | 4 (≈ 5.57 µM) |  |  |  |  |  |  |  |  | 
16 | C=C[C@]1(C)C[C@@H](OC(=O)CSc2ccccc2NC(=O)CN2CCN(c3ccc(C)cc3)CC2)[C@]2(C)[C@H](C)CC[C@]3(CCC(=O)[C@H]32)[C@@H](C)[C@@H]1O | > 32 | > 32 | > 8 | > 8 | > 8 |  |  |  |  |  |  |  |  | 
17 | C=C[C@]1(C)C[C@@H](OC(=O)CSc2ccccc2NC(=O)CN2CCN(C)CC2)[C@]2(C)[C@H](C)CC[C@]3(CCC(=O)[C@H]32)[C@@H](C)[C@@H]1O | > 32 | > 32 | 0.5 (≈ 0.799 µM) | 0.5 (≈ 0.799 µM) | 0.5 (≈ 0.799 µM) |  |  |  |  |  |  |  |  | 
18 | C=C[C@]1(C)C[C@@H](OC(=O)CSc2ccccc2NC(=O)CN2CCN(c3ccccc3Cl)CC2)[C@]2(C)[C@H](C)CC[C@]3(CCC(=O)[C@H]32)[C@@H](C)[C@@H]1O | > 32 | > 32 | 8 (≈ 11.1 µM) | 8 (≈ 11.1 µM) | 8 (≈ 11.1 µM) |  |  |  |  |  |  |  |  | 
19 | C=C[C@]1(C)C[C@@H](OC(=O)CSc2ccccc2NC(=O)CN2CCN(c3cccc(C)c3)CC2)[C@]2(C)[C@H](C)CC[C@]3(CCC(=O)[C@H]32)[C@@H](C)[C@@H]1O | > 32 | > 32 | > 8 | > 8 | > 8 |  |  |  |  |  |  |  |  | 
20 | C=C[C@]1(C)C[C@@H](OC(=O)CSc2ccccc2NC(=O)CN2CCN(c3cccc([N+](=O)[O-])c3)CC2)[C@]2(C)[C@H](C)CC[C@]3(CCC(=O)[C@H]32)[C@@H](C)[C@@H]1O | > 32 | > 32 | 4 (≈ 5.46 µM) | 4 (≈ 5.46 µM) | 4 (≈ 5.46 µM) |  |  |  |  |  |  |  |  | 
21 | C=C[C@]1(C)C[C@@H](OC(=O)CSc2ccccc2NC(=O)CN2CCN(c3ccc([N+](=O)[O-])cc3)CC2)[C@]2(C)[C@H](C)CC[C@]3(CCC(=O)[C@H]32)[C@@H](C)[C@@H]1O | > 32 | > 32 | 2 (≈ 2.73 µM) | 2 (≈ 2.73 µM) | 4 (≈ 5.46 µM) |  |  |  |  |  |  |  |  | 
22 | C=C[C@]1(C)C[C@@H](OC(=O)CSc2ccccc2NC(=O)CN2CCC(O)C2)[C@]2(C)[C@H](C)CC[C@]3(CCC(=O)[C@H]32)[C@@H](C)[C@@H]1O (some centres not stated) | > 32 | > 32 | 0.25 (≈ 0.408 µM) | 0.125 (≈ 0.204 µM) | 0.25 (≈ 0.408 µM) |  |  |  |  |  |  |  |  | 
